Measurements as given in publication PMC9645390, “Amphiphilic stilbene derivatives attenuate the neurotoxicity of soluble Aβ42 oligomers by controlling their interactions with cell membranes” (Chemical Science, 2022).
Like-named read-outs stand apart in the source and are kept apart here.

Legend:
[1] = test system: Cu2+–Aβ42 species in Neuro2A cells; test: Cu2+-Aβ42-induced toxicity in Neuro2A cells (Alamar Blue); assay type: cell-based, mouse; conditions: [Aβ42] = [Cu2+] = 40 μM, compound 10 μM (ZY-12-OMe 5 μM), 40 h
Procedure: As mentioned above, compounds that are not cytotoxic at 10 μM, including ZY-12-MT, ZY-15-MT, ZY-15-OMe, ZY-17-MT, ZY-5-MT, ZY-5-DT, ZY-5-OMe, and ZY-12-OMe, were chosen for this study. Firstly, during the control studies, we observed that monomeric Aβ42 led to negligible neurotoxicity. Nevertheless, in the presence of both Cu^2+ and monomeric Aβ42, there was a significant cell death, which is likely due to the Cu^2+ associated neurotoxic Aβ42 oligomers formation.[46] […] According to the docking results, ZY-12-MT, ZY-15-OMe, ZY-15-MT, and ZY-5-OMe interact with Aβ42 tetramers mainly through residues His6, Asp7, Tyr10 (via hydrogen bonds), and Tyr10 (via π–π interactions). Some reports have also shown that His6, Asp7, and Tyr10 are potentially involved in the Cu–Aβ interactions, which explains why the compounds are able to attenuate the Cu–Aβ toxicity.[48]
Fig. 9 Cell viability results upon incubation of Neuro2A cells with monomeric Aβ42 in the presence or absence of metal ions and amphiphilic compounds. Concentrations: [Aβ42] = 40 μM, [Cu^2+] = 40 μM, [ZY-12-MT] = [ZY-15-OMe] = [ZY-15-MT] = [ZY-17-MT] = [ZY-5-OMe] = [ZY-5-MT] = [ZY-5-DT] = 10 μM, [ZY-12-OMe] = 5 μM. The error bars represent the standard deviation from five independent experiments, and the statistical analysis was evaluated according to one-way ANOVA (*p < 0.05).
Alamar Blue assay was chosen for the cytotoxicity studies.3 Mouse neuroblastoma Neuro2A (N2A) cells were grown with DMEM/10% FBS in a petri dish at 37 °C in a humidified atmosphere with 5% CO2. Then N2A cells were seeded in a 96-well plate (1.0 × 10^4/well). After 24 h incubation, cell media was changed to DMEM/N-2, and N2A cells were incubated for another 1 h. […]
(§1) For the Cu2+-Aβ-induced toxicity studies, cells were treated monomeric Aβ42, Cu2+, monomeric Aβ42 + Cu2+, and monomeric Aβ42 + Cu2+ + compounds, monomeric Aβ42 + Cu2+ + copper chelators (Me2HTACN or Me3TACN), respectively. After 40 h incubation, Alamar Blue solution (10 μL) was added, and the cells were incubated for another 90 min at 37 °C. The fluorescence intensity of each well was measured at 590 nm (excitation wavelength = 560 nm). […]
10. The effect of copper chelators on Cu2+-Aβ42 neurotoxicity
Figure S8. Cell viability results upon incubation of Neuro2A cells with 10 μM copper chelators (Me2HTACN or Me3TACN) in the presence or absence of 40 μM (Aβ42 + Cu2+). The error bars represent the standard deviation from five independent experiments, and the statistical analysis was evaluated according to one-way ANOVA. […]

[2] = Log D by octanol-PBS partition assay; assay type: physicochemical; conditions: pH 7.4, fluorescence readout
Procedure: In order to confirm that the compounds can also bind to native Aβ species, brain sections collected from 9-month-old 5xFAD transgenic mice have been employed in the fluorescence imaging studies. […] The brain sections were first incubated with our compounds, followed by Congo Red (CR), which is a well-established fluorescent probe that can bind to Aβ plaques.[34] The treated brain sections were then imaged using fluorescence microscope. […] Immunostaining with the CF594-conjugated HJ 3.4 antibody (CF594-HJ3.4) was also performed to confirm that these six compounds can bind to Aβ species specifically in the brain sections (Fig. 5). Moreover, the log D values of the compounds were also measured by octanol-PBS partition assays.[35] […]
The Log D value was measured following a published procedure using slight modifications.4 In general, compounds in 0.5 mL octanol was subjected to partition with 0.5 mL octanol-saturated
PBS. The whole mixture was stirred vigorously for 5 min, and centrifuged at 2,000 rpm for 5 min.
The top octanol layer was separated for later fluorescence measurement. The remaining PBS layer was partitioned with 0.5 mL PBS-saturated octanol, and the second top octanol layer was then separated after vigorous stirring and centrifuging at 2,000 rpm for another 5 min. The two octanol layers’ fluorescence spectra were recorded. The log D value was calculated by the fluorescence intensity ratio at the compounds’ emission wavelength for the above two octanol extractions. […]

[3] = Alamar Blue cytotoxicity assay in N2a cells; assay type: cell-based, mouse; conditions: mouse, N2a (Neuro2A) neuroblastoma cells, up to 10 μM, 40 h, read-out: cell viability
Procedure: (§2) After confirming these amphiphilic compounds can bind to Aβ species both in vitro and ex vivo, we next investigated whether these compounds could attenuate the toxicity of the Cu–Aβ species, as the Cu^2+ ions were reported to promote the formation of neurotoxic soluble Aβ42 oligomers.[45,46] Firstly, the Alamar Blue cell viability assay was used to measure the cytotoxicity of the compounds at different concentrations ranging from 20 μM to 2 μM in mouse neuroblastoma N2a cells (Fig. 8). […] Considering its high binding affinity to both Aβ fibrils and oligomers, we also further tested its ability to alleviate Cu^2+–Aβ42-induced toxicity. […] The underlying mechanism is unclear, but we propose that these compounds might perform similarly to the toxic oligomers that bind to some cell membrane receptors or insert into the membrane lipids to form porous channels.
(§3) Alamar Blue assay was chosen for the cytotoxicity studies.3 Mouse neuroblastoma Neuro2A (N2A) cells were grown with DMEM/10% FBS in a petri dish at 37 °C in a humidified atmosphere with 5% CO2. Then N2A cells were seeded in a 96-well plate (1.0 × 10^4/well). After 24 h incubation, cell media was changed to DMEM/N-2, and N2A cells were incubated for another 1 h. Then the cells were treated with different concentrations of compounds for 40 h, Alamar Blue solution (10 μL) was added, and the cells were incubated for another 90 min at 37 °C. The fluorescence intensity of each well was measured at 590 nm (excitation wavelength = 560 nm).
as §1

Aβ42 oligomers = molecular target: T1, Aβ42 oligomers (Homo sapiens, UniProt P05067); test: Fluorescence saturation binding assay with Aβ42 oligomers; conditions: for Kd / binding ratio, Oligomers: Aβ42 oligomers; for Kd: 10 mM PBS pH 7.4, one site-specific binding model; for binding ratio, Oligomers: from cross point between plateau and initial slope; for binding preference oligomers vs fibrils (from Kd values): lower Kd for Aβ oligomers than Aβ fibrils
T1 construct: 1 mg of commercial Aβ42 monomer powder (from GL biochem) was dissolved in 1; purchased GL biochem
T1 sequence (P05067 672-713 limits assumed): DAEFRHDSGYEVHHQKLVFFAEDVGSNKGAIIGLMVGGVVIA
Procedure: (§4) Fig. 3 Binding constant measurements of ZY-5-OMe (left), ZY-5-MT (middle), ZY-5-DT (right) with Aβ42 fibrils (top), and oligomers (bottom). The measurements were performed in 10 mM phosphate buffered saline (PBS), pH 7.4. The Kd curves were fitted in GraphPad Prism with one site-specific binding model. Equation: Y = Bmax × X/(Kd + X). [Aβ42 fibrils] = [Aβ42 oligomers] = 5 μM.
(§5) Preparation of the Aβ42 Fibrils and Aβ42 Oligomers
(§6) Aβ42 fibrils: 1 mg of commercial Aβ42 monomer powder (from GL biochem) was dissolved in 1
(§7) mL 1,1,1,3,3,3-hexafluoro-2-propanol (HFIP) at room temperature and incubated for 1h. The
(§8) resulting solution was divided equally into two Eppendorf tubes. The solution in each Eppendorf
(§9) tube containing 0.5 mg Aβ42 monomer was then evaporated overnight and dried by vacuum
(§10) centrifuge to generate monomeric films. 100 μM Aβ42 fibrils solution was prepared by dissolving
(§11) the 0.5 mg monomeric films in 1.1 mL PBS buffer (with final DMSO concentration less than 1%)
(§12) and stiring at 37 °C for 3 days.
(§13) Aβ42 oligomers: The 0.5 mg monomeric films were dissolved in 1.1 mL PBS buffer (with final
(§14) DMSO concentration less than 1%) and incubated at 4 °C overnight. The resulting solution was
(§15) then centrifuged at 3000 rpm for 15 mins to remove the insoluble aggregates. The clear supernatant
(§16) was then used for the following experiments. […]
(§17) In Vitro Saturation Binding Studies with Aβ42 Fibrils and Aβ42 Oligomers
(§18) To a solution of increasing concentrations of compounds, a fixed concentration of the generated
(§19) aggregated Aβ42 fibrils or Aβ42 oligomers solutions (5 to 15 μM) was added to yield a total volume
(§20) of 100 μL. Nonspecific binding was determined without compounds. The mixture was incubated
(§21) for 15 min at room temperature. All fluorescence data were obtained on a SpectraMax M2e plate
(§22) reader (Molecular Devices).

Aβ42 fibrils = molecular target: T2, Aβ42 fibrils (Homo sapiens, UniProt P05067); test: Fluorescence saturation binding assay with Aβ42 fibrils; conditions: for binding ratio, Fibrils: from cross point between plateau and initial slope
T2 construct: 1 mg of commercial Aβ42 monomer powder (from GL biochem) was dissolved in 1; purchased GL biochem
T2 sequence (P05067 672-713 limits assumed): as above
Procedure: as §4, §5, §6, §7, §8, §9, §10, §11, §12, §13, §14, §15, §16, §17, §18, §19, §20, §21, §22

[4] = molecular target: T3, Aβ plaques in 5xFAD mice brain sections (Homo sapiens, UniProt P05067); test: Fluorescence imaging of 5xFAD mouse brain sections, colocalization with Congo Red; conditions: 9-month-old 5xFAD brain sections; compound 5 μM, Congo red 2.5 μM
T3 construct: aggregated Aβ species were commonly observed in brain sections from 5xFAD transgenic mice; tissue Jackson Laboratories; host or cells: brain sections of 9-month-old 5xFAD transgenic mice
T3 sequence (P05067 672-713 limits assumed): as above
Procedure: In order to confirm that the compounds can also bind to native Aβ species, brain sections collected from 9-month-old 5xFAD transgenic mice have been employed in the fluorescence imaging studies. […] The brain sections were first incubated with our compounds, followed by Congo Red (CR), which is a well-established fluorescent probe that can bind to Aβ plaques.[34] The treated brain sections were then imaged using fluorescence microscope. […] Immunostaining with the CF594-conjugated HJ 3.4 antibody (CF594-HJ3.4) was also performed to confirm that these six compounds can bind to Aβ species specifically in the brain sections (Fig. 5). Moreover, the log D values of the compounds were also measured by octanol-PBS partition assays.[35]
Fig. 4 Fluorescence microscopy images of 5xFAD mice brain sections co-incubated with amphiphilic compounds (top), Congo red (middle) and merged images (bottom, along with the Parson's correlation coefficients R). Concentrations: [amphiphilic compounds] = 5 μM, [Congo red] = 2.5 μM; scale bar: 125 μm. TEXT PRINTED IN THE PICTURE: ZY-5-MT: Merged R= 0.84 | ZY-12-DT: Merged R= 0.52 | ZY-12-OMe: Merged R= 0.77 | ZY-15-OMe: Merged R= 0.77 | ZY-17-DT: Merged R= 0.77 | ZY-17-OMe: Merged R= 0.72 […]
Histological Staining of 5×FAD Mice Brain Sections
5xFAD transgenic mice brain sections were blocked with bovine serum albumin (2% BSA in PBS, pH 7.4, 10 min). Then the mice brain sections were transferred to a PBS solution of the compound and incubated for 1 h. After which, the brain sections were transferred to a PBS solution of Congo Red or antibody HJ 3.4 (Professor David Holtzman, 1 μg/ml) and incubated for another 1 h. Then, the brain sections were treated with BSA again (5 min) followed by washing with PBS (3 × 2 min), DI water (3 × 2 min). Finally, the mice brain sections were mounted with non-fluorescent mounting media, and the images were obtained by using EVOS FL Auto 2. ImageJ Fiji program was used for colocalization analysis and determination of the Pearson’s correlation coefficient. The primary

[5] = test system: mouse neuroblastoma N2a cells; test: Alamar Blue cytotoxicity assay in N2a cells; assay type: cell-based; conditions: 2 to 20 μM
Procedure: as §2, §3, §1

[6] = Aβ42 fibrils, 10 mM PBS pH 7.4, one site-specific binding model, read-out: Kd, Fibrils

Row | Compound | effect on Cu2+–Aβ42-induced toxicity (cell viability, in words) [1] | logD [2] | viability at 40 h [3] | Kd (Aβ42 oligomers) | binding ratio, Oligomers (Aβ42 oligomers) | Kd (Aβ42 fibrils; [6]) | binding ratio, Fibrils (Aβ42 fibrils; Aβ42 fibrils) | Pearson's correlation coefficient R, colocalization with Congo Red [4] | selectivity to Aβ oligomers (times higher than that for Aβ fibrils) (Aβ42 oligomers; from Kd values fibrils vs oligomers) | binding preference oligomers vs fibrils (from Kd values) (Aβ42 oligomers) | Kd (Aβ42 fibrils; another trial, [Aβ42 fibrils] = 5 μM, PBS pH 7.4 (Fig. S5), read-out: Kd, Aβ42 fibrils, another trial) | cytotoxicity (in words) [5]
1 | CN1CCNCCN(C)CC1 [Me2HTACN, 1,4-dimethyl-1,4,7-triazacyclononane, reference compound] | not able to alleviate the neurotoxicity |  |  |  |  |  |  |  |  |  |  | 
2 | CN1CCN(C)CCN(C)CC1 [Me3TACN, 1,4,7-trimethyl-1,4,7-triazacyclononane, reference compound] | not able to alleviate the neurotoxicity |  |  |  |  |  |  |  |  |  |  | 
3 | CN1CCN(C)CCN(Cc2cc(/C=C/c3ccc(-c4ccc(N(C)C)cc4)s3)cc(CN3CCN(C)CCN(C)CC3)c2O)CC1 [ZY-5-DT] |  | 1.03 ± 0.122 | > 80% | 2090 nM | 1.7 | 1670 nM | 1.6 |  |  |  |  | 
4 | CN1CCN(C)CCN(Cc2cc(/C=C/c3ccc(-c4ccc(N(C)C)cc4)s3)ccc2O)CC1 [ZY-5-MT] |  | 0.997 ± 0.031 | > 80% | 460 nM | 4.9 | 1820 nM | 2.1 | 0.84 | 3.9 times | higher binding affinity to oligomers over fibrils | 1430 nM | 
5 | CN1CCN(C)CCN(Cc2cc(-c3ccc(/C=C/c4ccc(N(C)C)cc4)s3)cc(CN3CCN(C)CCN(C)CC3)c2O)CC1 [ZY-12-DT] |  | 1.13 ± 0.045 |  | 670 nM | 3.7 | 1380 nM | 3.5 | 0.52 |  | higher binding affinity to oligomers over fibrils |  | higher cytotoxicity than others
6 | CN1CCN(C)CCN(Cc2cc(/C=C/c3ccc(-c4ccc(C=O)cc4)s3)cc(CN3CCN(C)CCN(C)CC3)c2O)CC1 [ZY-15-DT] |  | 1.16 ± 0.026 |  | 4550 nM | 1.2 | 1270 nM | 2.9 |  |  |  |  | 
7 | COc1cc(OC)cc(-c2ccc(/C=C/c3ccc(O)c(CN4CCN(C)CCN(C)CC4)c3)cc2)c1 [ZY-17-MT] |  | 0.81 ± 0.079 | > 80% | 2080 nM | 2.0 | 940 nM | 5.5 |  |  |  |  | 
